Measurements taken from US20220110902A1, “Methods of treating amyloid-beta peptide diseases” (Ecole Polytechnique Federale de Lausanne, priority 2016, published 2022).
Entries after “also recorded” stand apart in the source; their conditions may differ.

Legend:
[1] = tested on: GMC101 worms; test: Worm phenotypic assays in GMC101: mobility, paralysis and death score; type: in vivo, C. elegans; settings: for fitness/healthspan and lifespan (mobility, paralysis, death): GMC101, mobility from day 1 of adulthood, paralysis and death at day 8, dox 15 μg/mL, AZD 300 nM
Method: Doxycycline was obtained from Sigma-Aldrich and dissolved in water. For experiments, a final concentration of 15 μg/mL was used. Olaparib (AZD2281) was dissolved in DMSO to experimental concentrations of 300 nM. Nicotinamide Riboside triflate (NR) was custom synthesized by Novalix (www.novalix-pharma.com/) and dissolved in water, and used at a final concentration of 1 mM. Compounds were added just before pouring the plates. For phenotyping experiments, parental F0 L4 worms were allowed to reach adulthood and lay eggs on the treatment plates. The deriving F1 worms were therefore exposed to compounds during the full life from eggs until death. For RNA analysis experiments, synchronized L1 worms were exposed to the compounds until harvest. To ensure a permanent exposure to the compound, plates were changed twice a week.
Mobility: C. elegans movement analysis was performed as described, starting from day 1 of adulthood, using the Movement Tracker software. The experiments were repeated at least twice.
Paralysis and death score: 5 L4 worms per condition were allowed to reach adulthood and lay eggs on the treatment plates. 45 to 60 deriving F1 worms per condition were manually scored for paralysis after poking, as already described. Worms that were unable to respond to any, repeated stimulation, were scored as dead. Results are representative of the data obtained in at least three independent experiments.
(§1) During the assays, animals were exposed to Myriocin (dissolved in DMSO) from the egg stage on plates seeded with live HT115 E. coli bacteria. Control plates seeded with the same bacteria were prepared with the corresponding concentrations of DMSO. The day of the experiment (day 1 of adulthood, 3 days after hatching), the GMC101 population was shifted to 25° C. in order to induce the amyloid deposition in the body wall muscle. ˜1000 worms were used for western blotting assays.
C. elegans movement analysis was performed as described (Mouchiroud et al., 2016), using the Movement Tracker software. ˜50 adult worms were used per condition for movement assays.
To score for paralysis and death, 50 worms per condition were manually scored after poking as described (McCool et al., 2012; Florez-McClure et al., 2007). Worms that were unable to respond to repeated stimulation were scored as dead.
as §1, with “the compound UA” for “Myriocin (dissolved in DMSO)”, “from” for “from the”, “DMSO (0.1%).” for “DMSO.”, “˜50 adult” for “˜1000”, “per conditions.” for “for western blotting assays.”
C. elegans movement analysis was performed as described in (Mouchiroud et al., 2016), using the Movement Tracker software within a period of 4 days.

[2] = tested on: GMC101 worms; test: Transcript analysis of the MSR and other stress pathways in GMC101 worms; type: in vivo, C. elegans; settings: for UPR^er and HSR gene transcripts: AZD 0.3 μM; for MSR transcripts (UPR^mt, mitophagy and respiration genes): AZD 300 nM
Method: C. elegans: A total of ˜3000 worms per condition, divided in 3 biological replicates, was recovered in M9 buffer from NGM plates and lysed in the TriPure RNA reagent. Each experiment was repeated twice. Total RNA was transcribed to cDNA using QuantiTect Reverse Transcription Kit (Qiagen). Expression of selected genes was analyzed using the LightCycler480 system (Roche) and LightCycler® 480 SYBR Green I Master reagent (Roche). For C. elegans, 2 housekeeping genes were used to normalize the expression data, namely actin (act-1) and peroxisomal membrane protein 3 (pmp-3).
atfs-1p::atfs-1 expression vector was created by amplifying 1488 bp sequence upstream from the transcription start site of atfs-1 coding region by using worm genomic DNA for the promoter region. The PCR product was digested with PciI and AgeI and ligated into the pPD30.38 expression vector containing gfp coding sequence cloned between inserted AgeI and NotI restriction sites. The atfs-1 coding sequence (CDS) was instead amplified using C. elegans cDNA, and the PCR product was inserted into pPD30.38 downstream of the promoter region, between AgeI and NheI restriction sites. The correctness of the atfs-1p::atfs-1 construct was assessed by sequencing with the indicated pPD30.38 and atfs-1 seq. primers. Two independent GMC101 lines (AUW9 and AUW10), and one CL2122 strain (AUW11) carrying atfs-1p::atfs-1 transgene as extrachromosomal array were analyzed in the study. Injection marker myo-2p::gfp was cloned by amplifying 1179 bp sequence upstream from the transcription start site of myo-2 coding region by using C. elegans genomic DNA. The PCR product was digested with PciI and AgeI and ligated into the pPD30.38 expression vector containing atfs-1::gfp to replace atfs-1 promoter sequence between PciI and AgeI restriction sites. All transgenic strains were created by using microinjection. For the generation of the GMC101 lines AUW12 and AUW13, GMC101 males were generated after exposure of L4 worms to 30° C. for 3 h, and let mate with L4 from clk-1 or nuo-6 mutant strains. The derived progeny was selected for homozygosis of the GMC101 intestinal GFP marker for few generations, and the homozygosis of the clk-1 or nuo-6 mutant alleles verified by amplifying and sequencing a 500 bp region of the worms genomic DNA encompassing the desired mutation. Bacterial feeding RNAi experiments were carried out as described. Clones used were atfs-1 (ZC376.7), ubl-5 (F46F11.4), mrps-5 (E02A10.1), dct-1 (C14F5.1), daf-16 (R13H8.1), sir-2.1 (R11A8.4), xbp-1 (R74.3) and hsf-1 (Y53C10A.12). Clones were purchased from GeneService and verified by sequencing. The novel atfs-1 RNAi construct (atfs-1 #2) used in this study was generated by amplifying 1400 bp of the atfs-1 genomic DNA sequence, starting from the last exon of atfs-1. Gateway cloning (Thermo Scientfic) was used to insert the PCR product into the gateway vector pL4440gtwy (Addgene #11344), and verified by sequencing. atfs-1 knockdown was verified by qPCR for all the atfs-1 RNAi constructs used herein. For phenotypic studies (see below), worms at the L4 larval stage were allowed to reach adulthood and lay eggs on the treatment plates. The deriving F1 worms were shifted from 20° C. to 25° C. at the L4 stage to induce amyloid accumulation and paralysis, and phenotypes assessed over time as indicated. For double RNAi experiments, we used a combination of atfs-1 with mrps-5 RNAi constructs as indicated in the text, with 80% amount of atfs-1 and 20% mrps-5 RNAi. For mRNA analysis, synchronized L1 worms were exposed to the treatment plates, and shifted from 20° C. to 25° C. when reaching the L4 stage. After 24 hours incubation at 25° C., corresponding to day 1 of adulthood, they were harvested in M9 for analysis.
Doxycycline was obtained from Sigma-Aldrich and dissolved in water. For experiments, a final concentration of 15 μg/mL was used. Olaparib (AZD2281) was dissolved in DMSO to experimental concentrations of 300 nM. […]

[3] = GMC101, day 1 of adulthood, dox 15 μg/mL, NR 1 mM

Compound	fitness/healthspan and lifespan (mobility, paralysis, death) ([1]; NR 1 mM)	UPR^er and HSR gene transcripts [2, 3]	MSR transcripts (UPR^mt, mitophagy and respiration genes) [2, 3]	health- and life-span upon sir-2.1 RNAi ([1]; GMC101 fed with sir-2.1 RNAi, NR 1 mM)	dependence of motility and Aβ clearance benefits on atfs-1 ([1]; GMC101 upon atfs-1 RNAi feeding)	dependence of health-, lifespan and proteostasis benefits on dct-1 ([1]; GMC101 upon dct-1 RNAi feeding)	daf-16 and daf-16 target gene transcripts [2, 3]	paralysis and death (survival) ([1]; GMC101, day 4 of adulthood, Myriocin 10 uM)	spontaneous movement (mobility) ([1]; GMC101, period of 4 days, Myriocin 10 uM)	oxidative stress and mitochondrial stress response genes (sod-2, sod-4, atfs-1, skn-1) ([2]; GMC101, myriocin 5 uM and 10 uM)	UPR^mt and mitophagy genes (hsp-6, hsp-60, dct-1, pdr-1) ([2]; GMC101, myriocin treatment)
O=C(c1cc(Cc2n[nH]c(=O)c3ccccc23)ccc1F)N1CCN(C(=O)C2CC2)CC1 [AZD, Olaparib, reference compound]	improved healthspan and lifespan	only a minimal impact	induced the MSR	–	–	–	–	–	–	–	–
NC(=O)c1ccc[n+]([C@@H]2O[C@H](CO)[C@@H](O)[C@H]2O)c1 [NR, Nicotinamide Riboside triflate]	improved healthspan and lifespan	only a minimal impact	induced the MSR	still significantly rescued health- and life-span	required	required	did not affect	–	–	–	–
CCCCCCC(=O)CCCCCC/C=C/C[C@@H](O)[C@H](O)[C@@](N)(CO)C(=O)O [Myriocin, (E,2S,3R,4R)-2-amino-3,4-dihydroxy-2-(hydroxymethyl)-14-oxoicos-6-enoic acid]	–	–	–	–	–	–	–	decreased both paralysis and death; also recorded: improves the paralysis score and survival	increased the mobility; also recorded: increase in spontaneous movement	induction	upregulation
